Measured values as given in patent US10100022B2, “Sphingosine kinase inhibitors” (University of Virginia Patent Foundation, priority 2014, dated 2018).
Structures can show the parent of a compound that is named as a salt.

Legend:
[1] = target: T1, human sphingosine kinase type 1 (hSPHK1) (Homo sapiens, UniProt Q9NYA1); assay: Sphingosine kinase assay, recombinant human SPHK1 ([32P]S1P product, scintillation counting); format: biochemical; conditions: read-out: activity hSPHK1 (range estimate of KI)
T1 construct: made in house; host or cells: Sf9 insect cells (baculovirus)
T1 sequence (Q9NYA1 whole entry): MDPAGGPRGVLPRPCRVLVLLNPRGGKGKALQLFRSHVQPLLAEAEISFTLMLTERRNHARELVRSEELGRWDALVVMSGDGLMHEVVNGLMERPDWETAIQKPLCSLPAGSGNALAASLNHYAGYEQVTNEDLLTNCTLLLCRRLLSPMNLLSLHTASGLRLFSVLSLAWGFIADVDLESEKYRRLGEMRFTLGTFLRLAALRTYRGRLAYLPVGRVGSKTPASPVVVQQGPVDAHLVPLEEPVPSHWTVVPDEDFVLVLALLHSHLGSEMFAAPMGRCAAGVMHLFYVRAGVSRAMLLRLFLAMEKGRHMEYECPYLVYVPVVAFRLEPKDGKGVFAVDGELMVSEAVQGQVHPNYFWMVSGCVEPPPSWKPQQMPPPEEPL
Method: (§1) Recombinant baculovirus encoding human sphingosine kinase type 1 (SPHK1) was used to infect Sf9 insect cells and after 2-5 days, cleared lysates were prepared and used without further purification. Human SPHK2, which was partially purified from baculovirus-infected Sf9 cell lysates, was purchased from a commercial source. Sphingosine kinase assays were performed using standard protocols. Product [^32P]S1P was recovered by binding to cation exchange paper and quantified by scintillation counting.

[2] = target: T2, human sphingosine kinase type 2 (hSPHK2) (Homo sapiens, UniProt Q9NRA0); assay: Sphingosine kinase assay, recombinant human SPHK2 ([32P]S1P product, scintillation counting); format: biochemical; conditions: read-out: activity hSPHK2 (range estimate of KI)
T2 construct: purchased; host or cells: Sf9 insect cells (baculovirus)
T2 sequence (Q9NRA0 1-654): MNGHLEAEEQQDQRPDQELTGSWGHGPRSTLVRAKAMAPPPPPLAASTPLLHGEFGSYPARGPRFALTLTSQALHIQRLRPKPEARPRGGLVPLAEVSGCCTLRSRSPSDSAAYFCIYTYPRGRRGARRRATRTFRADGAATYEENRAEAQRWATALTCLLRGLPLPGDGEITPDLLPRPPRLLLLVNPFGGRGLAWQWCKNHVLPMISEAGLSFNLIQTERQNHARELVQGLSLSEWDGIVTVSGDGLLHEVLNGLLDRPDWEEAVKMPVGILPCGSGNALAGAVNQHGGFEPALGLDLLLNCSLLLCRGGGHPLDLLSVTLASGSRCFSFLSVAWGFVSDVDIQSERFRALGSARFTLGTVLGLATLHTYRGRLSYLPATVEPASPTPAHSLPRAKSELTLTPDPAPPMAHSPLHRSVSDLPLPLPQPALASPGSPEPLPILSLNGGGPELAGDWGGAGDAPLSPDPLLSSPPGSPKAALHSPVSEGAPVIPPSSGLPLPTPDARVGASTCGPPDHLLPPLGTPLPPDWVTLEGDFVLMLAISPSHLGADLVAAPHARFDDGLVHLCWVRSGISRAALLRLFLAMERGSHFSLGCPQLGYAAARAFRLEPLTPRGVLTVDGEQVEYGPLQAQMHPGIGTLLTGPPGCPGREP
Method: as §1

Structure (SMILES)	Ki [1]	Ki [2]
CCCCCCCn1cc(-c2noc([C@@H]3CCCN3C(=N)N)n2)c2ccccc21 [Compound 1A, (S)-amino(2-(3-(1-heptyl-1H-indol-3-yl)-1,2,4-oxadiazol-5-yl)pyrrolidin-1-yl)methaniminium chloride]	> 10 µM	> 10 µM
CCCCCCCCCCCn1cc(-c2noc([C@@H]3CCCN3C(=N)N)n2)c2ccccc21 [Compound 4A, (S)-amino(2-(3-(1-undecyl-1H-indol-3-yl)-1,2,4-oxadiazol-5-yl)pyrrolidin-1-yl)methaniminium chloride]	> 10 µM	1 to 10 µM
CCCCCCCCCn1cc(-c2noc([C@@H]3CCCN3C(=N)N)n2)c2ccccc21 [Compound 2A, (S)-amino(2-(3-(1-nonyl-1H-indol-3-yl)-1,2,4-oxadiazol-5-yl)pyrrolidin-1-yl)methaniminium chloride]	> 10 µM	> 10 µM
N=C(N)N1CCC[C@H]1c1nc(-c2ccc(OCCCCO)c(C(F)(F)F)c2)no1 [Compound 45A, (S)-2-(3-(4-(4-hydroxybutoxy)-3-(trifluoromethyl)phenyl)-1,2,4-oxadiazol-5-yl)pyrrolidine-1-carboximidamide hydrochloride]	> 10 µM	1 to 10 µM
COCCCCOc1ccc(-c2noc([C@@H]3CCCN3C(=N)N)n2)cc1C(F)(F)F [Compound 46A, (S)-2-(3-(4-(4-methoxybutoxy)-3-(trifluoromethyl)phenyl)-1,2,4-oxadiazol-5-yl)pyrrolidine-1-carboximidamide 2,2,2-trifluoroacetate]	> 10 µM	> 10 µM
CCCCCCCCOc1ccc(-c2noc([C@@H]3CCCN3C(=N)N)n2)cc1Br [Compound 4B]	> 10 µM	< 1 µM
CCCCCCCCCCn1cc(-c2noc([C@@H]3CCCN3C(=N)N)n2)c2ccccc21 [Compound 7A, (S)-amino(2-(3-(1-decyl-1H-indol-3-yl)-1,2,4-oxadiazol-5-yl)pyrrolidin-1-yl)methaniminium chloride]	–	< 1 µM
CCCCCCCCOc1ccc(-c2noc([C@@H]3CCCN3C(=N)N)n2)cc1C [Compound 6B]	> 10 µM	< 1 µM
CC1(C)CCC(C)(C)c2cc(COc3ccc4cc(-c5noc([C@@H]6CCCN6C(=N)N)n5)ccc4c3)ccc21 [Compound 71A, (S)-amino(2-(3-(6-((5,5,8,8-tetramethyl-5,6,7,8-tetrahydronaphthalen-2-yl)methoxy)naphthalen-2-yl)-1,2,4-oxadiazol-5-yl)pyrrolidin-1-yl)methaniminium chloride]	–	> 10 µM
CCCCCCCCCCCCn1cc(-c2noc([C@@H]3CCCN3C(=N)N)n2)c2ccccc21 [Compound 3A, (S)-amino(2-(3-(1-dodecyl-1H-indol-3-yl)-1,2,4-oxadiazol-5-yl)pyrrolidin-1-yl)methaniminium chloride]	–	< 1 µM
CCCCCCCCOc1ccc(-c2noc([C@@H]3CCCN3C(=N)N)n2)cc1C(F)(F)F [Compound 2B]	> 10 µM	–

Other lines, results leading:

Ki [1]	Ki [2]	Structure (SMILES)
> 10 µM	< 1 µM	CCCOc1ccc(CCc2ccc(-c3noc([C@@H]4CCCN4C(=N)N)n3)cc2C(F)(F)F)cc1 [Compound 94A, (S)-2-(3-(4-(4-propoxyphenethyl)-3-(trifluoromethyl)phenyl)-1,2,4-oxadiazol-5-yl)pyrrolidine-1-carboximidamide hydrochloride]
> 10 µM	< 1 µM	CCCCCCCCOc1ccc(-c2noc([C@@H]3C=CCN3C(=N)N)n2)cc1C(F)(F)F [Compound 21A, (S)-amino(2-(3-(4-(octyloxy)-3-(trifluoromethyl)phenyl)-1,2,4-oxadiazol-5-yl)-2,5-dihydro-1H-pyrrol-1-yl)methaniminium chloride]
> 10 µM	< 1 µM	CCCc1ccc(CCc2ccc(-c3noc([C@@H]4CCCN4C(=N)N)n3)cc2C(F)(F)F)cc1 [Compound 35A, (S)-2-(3-(4-(4-propylphenethyl)-3-(trifluoromethyl)phenyl)-1,2,4-oxadiazol-5-yl)pyrrolidine-1-carboximidamide hydrochloride]
> 10 µM	> 10 µM	N=C(N)N1CCC[C@H]1c1nc(-c2ccc3cc(OCCc4ccc(C(F)(F)F)cc4)ccc3c2)no1 [Compound 54A, (S)-amino(2-(3-(6-(4-(trifluoromethyl)phenethoxy)naphthalen-2-yl)-1,2,4-oxadiazol-5-yl)pyrrolidin-1-yl)methaniminium chloride]
> 10 µM	> 10 µM	N=C(N)N1CCC[C@H]1c1nc(-c2ccc3cc(OCc4cccc(Br)c4)ccc3c2)no1 [Compound 58A, (S)-amino(2-(3-(6-((3-bromobenzyl)oxy)naphthalen-2-yl)-1,2,4-oxadiazol-5-yl)pyrrolidin-1-yl)methaniminium chloride]
> 10 µM	< 1 µM	CCCCC=CCOc1ccc(-c2noc([C@@H]3CCCN3C(=N)N)n2)cc1C(F)(F)F [Compound 81A, (S)-amino(2-(3-(4-(hept-2-en-1-yloxy)-3-(trifluoromethyl)phenyl)-1,2,4-oxadiazol-5-yl)pyrrolidin-1-yl)methaniminium 2,2,2-trifluoroacetate]
> 10 µM	< 1 µM	CCCCc1ccc(CCc2ccc(-c3noc([C@@H]4CCCN4C(=N)N)n3)cc2C(F)(F)F)cc1 [Compound 36A, (S)-2-(3-(4-(4-butylphenethyl)-3-(trifluoromethyl)phenyl)-1,2,4-oxadiazol-5-yl)pyrrolidine-1-carboximidamide hydrochloride]
> 10 µM	< 1 µM	N=C(N)N1CCC[C@H]1c1nc(-c2ccc(OC/C=C\c3ccc(C(F)(F)F)cc3)c(C(F)(F)F)c2)no1 [Compound 92A, (S,Z)-amino(2-(3-(3-(trifluoromethyl)-4-((3-(4-(trifluoromethyl)phenyl)allyl)oxy)phenyl)-1,2,4-oxadiazol-5-yl)pyrrolidin-1-yl)methaniminium 2,2,2-trifluoroacetate]
> 10 µM	> 10 µM	CC(C)=CCC/C(C)=C/COc1ccc(-c2noc([C@@H]3CCCN3C(=N)N)n2)cc1C(F)(F)F [Compound 93A, (S,E)-(2-(3-(4-((3,7-dimethylocta-2,6-dien-1-yl)oxy)-3-(trifluoromethyl)phenyl)-1,2,4-oxadiazol-5-yl)pyrrolidin-1-yl)(13-iodanylidene)methanamine hydrochloride]
1 to 10 µM	< 1 µM	N=C(N)N1CC[C@H](O)[C@H]1c1nc(-c2ccc(OCc3ccc(C(F)(F)F)cc3)c(C(F)(F)F)c2)no1 [Compound 24A, amino((2S,3S)-3-hydroxy-2-(3-(3-(trifluoromethyl)-4-((4-(trifluoromethyl)benzyl)oxy)phenyl)-1,2,4-oxadiazol-5-yl)pyrrolidin-1-yl)methaniminium chloride]
> 10 µM	> 10 µM	CCCCCCCCOc1ccc(-c2noc([C@@H]3C[C@H](O)CN3C(=N)N)n2)cc1C(F)(F)F [Compound 9A, amino((2S,4S)-4-hydroxy-2-(3-(4-(octyloxy)-3-(trifluoromethyl)phenyl)-1,2,4-oxadiazol-5-yl)pyrrolidin-1-yl)methaniminium chloride]
> 10 µM	> 10 µM	CCCCCCCCOc1ccc(-c2noc([C@@H]3[C@H](O)CCN3C(=N)N)n2)cc1C(F)(F)F [Compound 10A, amino((2S,3R)-3-hydroxy-2-(3-(4-(octyloxy)-3-(trifluoromethyl)phenyl)-1,2,4-oxadiazol-5-yl)pyrrolidin-1-yl)methaniminium chloride]
> 10 µM	1 to 10 µM	N#Cc1ccc(COc2ccc3cc(-c4noc([C@@H]5CCCN5C(=N)N)n4)ccc3c2)cc1 [Compound 70A, (S)-amino(2-(3-(6-((4-cyanobenzyl)oxy)naphthalen-2-yl)-1,2,4-oxadiazol-5-yl)pyrrolidin-1-yl)methaniminium chloride]
> 10 µM	> 10 µM	CCCCCCOc1ccc2cc(-c3noc([C@@H]4CCCN4C(=N)N)n3)ccc2c1 [Compound 16A, (S)-amino(2-(3-(6-(hexyloxy)naphthalen-2-yl)-1,2,4-oxadiazol-5-yl)pyrrolidin-1-yl)methaniminium chloride]
–	1 to 10 µM	N=C(N)N1CCC[C@H]1c1nc(-c2ccc3cc(OCc4ccc(C(F)(F)F)cc4)ccc3c2)no1 [Compound 52A, (S)-amino(2-(3-(6-((4-(trifluoromethyl)benzyl)oxy)naphthalen-2-yl)-1,2,4-oxadiazol-5-yl)pyrrolidin-1-yl)methaniminium chloride]
–	1 to 10 µM	CCCCOc1ccc2cc(-c3noc([C@@H]4CCCN4C(=N)N)n3)ccc2c1 [Compound 56A, (S)-amino(2-(3-(6-(butyloxy)naphthalen-2-yl)-1,2,4-oxadiazol-5-yl)pyrrolidin-1-yl)methaniminium chloride]
